Paper PMC3242765, “Inhibitors of Alphavirus Entry and Replication Identified with a Stable Chikungunya Replicon Cell Line and Virus-Based Assays” (PLoS ONE, 2011)
Counter-ions that a name gives are not always drawn.

What was measured:
[1] = test system: SFV-Rluc
[2] = test system: CHIKV replicon; experiment: microbe, parasite or virus in culture; assay type: cell-based, Chikungunya virus (CHIKV)

Row | Structure (SMILES) | SFV replication % left (surviving fraction, remaining percentage of SFV replication) [1] [%] | CHIKV replicon % left [2] [%]
1 | C[C@]12C=CC(=O)C=C1CC[C@@H]1[C@@H]2C(=O)C[C@@]2(C)[C@H]1CC[C@]2(O)C(=O)CO [Prednisone] | 85.0 | 54.4
2 | CCC1(c2ccccc2)C(=O)NCNC1=O [Primidone] | 127.1 | 41.6
3 | CCN(CC)CCNC(=O)c1ccc(N)cc1 [Procainamide hydrochloride] | 89.0 | 100.4
4 | CCN(CC)CCOC(=O)c1ccc(N)cc1 [Procaine hydrochloride] | 105.4 | 84.3
5 | CN1CCN(CCCN2c3ccccc3Sc3ccc(Cl)cc32)CC1 [Prochlorperazine] | 51.4 | 71.9
6 | Oc1cc(O)c2c(c1)O[C@H](c1ccc(O)c(O)c1)[C@H](O)[C@H]2c1c(O)cc(O)c2c1O[C@H](c1ccc(O)c(O)c1)[C@@H](O)C2 [Procyanidin B1] | 128.1 | 104.7
7 | Oc1cc(O)c2c(c1)O[C@H](c1ccc(O)c(O)c1)[C@H](O)[C@H]2c1c(O)cc(O)c2c1O[C@H](c1ccc(O)c(O)c1)[C@H](O)C2 [Procyanidin B2] | 93.7 | 101.9
8 | CC(CN1c2ccccc2Sc2ccccc21)N(C)C (stereo not drawn) [Promethazine hydrochloride] | 48.8 | 39.2
9 | CC(C)NCC(O)c1ccc2ccccc2c1 (stereo not drawn) [Pronethalol] | 62.9 | 29.9
10 | CC(C)[N+](C)(CCOC(=O)C1c2ccccc2Oc2ccccc21)C(C)C [Propantheline bromide] | 77.0 | 104.2
11 | CC(C)NCC(O)COc1cccc2ccccc12 (stereo not drawn) [Propranolol hydrochloride] | 74.0 | 105.4
12 | Cc1c(C(C)C)c(=O)n(-c2ccccc2)n1C [Propyphenazone] | 50.9 | 81.1
13 | CN(C)CCCN1c2ccccc2Sc2cccnc21.Cl [Prothipendyl hydrochloride] | 7.4 | 11.2
14 | CC(Cc1ccc2c(c1)OCO2)NCC(O)c1ccc(O)c(O)c1 (stereo not drawn) [Protokylol hydrochloride] | 128.4 | 85.4
15 | Cc1ncc(CO)c(CO)c1O [Pyridoxine hydrochloride] | 100.9 | 71.1
16 | COc1ccc(CN(CCN(C)C)c2ccccn2)cc1 [Pyrilamine maleate] | 73.7 | 85.4
17 | O=c1c(O)c(-c2ccc(O)c(O)c2)oc2cc(O)c(O)c(O)c12 [Quercetagetin] | 90.2 | 85.2
18 | COc1cc(O)c2c(=O)c(OC)c(-c3ccc(OC)c(OC)c3)oc2c1 [Quercetin-3,7,3',4'-tetramethylether] | 65.0 | 58.2
19 | O=c1c(O)c(-c2ccc(O)c(O)c2)oc2cc(O)cc(O)c12 [Quercetin] | 125.8 | 110.2
20 | C[C@@H]1O[C@@H](Oc2c(-c3ccc(O)c(O)c3)oc3cc(O)cc(O)c3c2=O)[C@H](O)[C@H](O)[C@H]1O.O.O [Quercitrin dihydrate] | 11.4 | 45.2
21 | Oc1cccc(O)c1 [Resorcin] | 83.0 | 72.2
22 | Oc1cccc(O)c1 [Resorcinol] | 67.1 | 102.9
23 | Oc1ccc(/C=C/c2cc(O)cc(O)c2)cc1 [Resveratrol] | 103.4 | 79.8
24 | COc1cc(O)c2c(=O)c(O)c(-c3ccc(O)c(O)c3)oc2c1 [Rhamnetin] | 119.1 | 94.7

Row | Structure (SMILES) | SFV replication % left (surviving fraction, remaining percentage of SFV replication) [1] [%] | CHIKV replicon % left [2] [%]
25 | Cc1cc2nc3c(=O)[nH]c(=O)nc-3n(C[C@H](O)[C@H](O)[C@H](O)CO)c2cc1C [Riboflavin] | 43.1 | 63.1
26 | O=C(/C=C/c1ccc(O)c(O)c1)O[C@H](Cc1ccc(O)c(O)c1)C(=O)O [Rosmarinic acid] | 120.3 | 98.8
27 | C[C@@H]1O[C@@H](OC[C@H]2O[C@@H](Oc3c(-c4ccc(O)c(O)c4)oc4cc(O)cc(O)c4c3=O)[C@H](O)[C@@H](O)[C@@H]2O)[C@H](O)[C@H](O)[C@H]1O [Rutin] | 44.1 | 49.5
28 | CC(C)(C)NCC(O)c1ccc(O)c(CO)c1 (stereo not drawn) [Salbutamol] | 151.4 | 78.4
29 | NC(=O)c1ccccc1O [Salicylamide] | 126.2 | 38.2
30 | O=C(O)c1ccccc1O [Salicylic acid] | 69.1 | 78.2
31 | O=C(Oc1ccccc1C(=O)O)c1ccccc1O [Salicylsalicylic acid] | 127.4 | 88.9
32 | CC1=C2[C@H]3OC(=O)[C@@H](C)[C@@H]3CC[C@@]2(C)C=CC1=O [Santonin] | 99.9 | 101.9
33 | COc1cc2ccc(=O)oc2cc1O [Scopoletin] | 81.9 | 95.4
34 | C#CCN(C)[C@H](C)Cc1ccccc1 [Selegiline hydrochloride] | 57.0 | 43.1
35 | COc1cc(/C=C/C(=O)O)cc(OC)c1O [Sinapic acid] | 22.0 | 51.4
36 | C=CC/C(=N/OS(=O)(=O)[O-])S[C@@H]1O[C@H](CO)[C@@H](O)[C@H](O)[C@H]1O.O.[K+] [Sinigrin monohydrate] | 47.6 | 99.2
37 | CC(C)NCC(O)c1ccc(NS(C)(=O)=O)cc1 (stereo not drawn) [Sotalol hydrochloride] | 100.5 | 80.1
38 | CC(=O)NS(=O)(=O)c1ccc(N)cc1 [Sulfacetamide] | 100.8 | 50.4
39 | Nc1ccc(S(=O)(=O)Nc2ncccn2)cc1 [Sulfadiazine] | 107.7 | 81.2
40 | COc1cc(NS(=O)(=O)c2ccc(N)cc2)nc(OC)n1 [Sulfadimethoxine] | 102.4 | 39.1
41 | CCc1nnc(NS(=O)(=O)c2ccc(N)cc2)s1 [Sulfaethidole] | 106.4 | 100.4
42 | [H]/N=C(/N)NS(=O)(=O)c1ccc(N)cc1 [Sulfaguanidine] | 63.5 | 62.1
43 | Cc1ccnc(NS(=O)(=O)c2ccc(N)cc2)n1 [Sulfamerazine] | 83.8 | 91.1
44 | COc1cnc(NS(=O)(=O)c2ccc(N)cc2)nc1 [Sulfameter] | 99.0 | 79.2
45 | Cc1cc(C)nc(NS(=O)(=O)c2ccc(N)cc2)n1 [Sulfamethazine] | 91.7 | 100.5
46 | Cc1nnc(NS(=O)(=O)c2ccc(N)cc2)s1 [Sulfamethizole] | 100.4 | 79.1
47 | Cc1cc(NS(=O)(=O)c2ccc(N)cc2)no1 [Sulfamethoxazole] | 77.5 | 100.5
48 | COc1ccc(NS(=O)(=O)c2ccc(N)cc2)nn1 [Sulfamethoxypyridazine] | 110.0 | 82.0
